Assay results published in patent US20230017045A1, “PYRIDINE AND PYRIMIDINE CARBOXYLATE HERBICIDES AND METHODS OF USE THEREOF” (Dow AgroSciences LLC, priority 2017, published 2023).

Tested on: test plant species
Assay: Post-emergent herbicidal activity test (greenhouse, foliar spray, visual growth reduction)
Assay type: in vivo
Conditions: post-emergence, 336 h, ALOMY: blackgrass (Alopecurus myosuroides), 140 g ai/ha, 14 days after application, read-out: Visual Growth Reduction (%) 14 Days After Application, ALOMY
Summary of the method: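 Visual scoring 14 d after treatment (0 = no injury, 100 = complete control) against nontreated and solvent-blank plants gave percent growth reduction. Foliar application used a track sprayer delivering 187 L/ha to seedlings at first or second true leaf stage, grown at 23–29 °C day, ~15 h photoperiod.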

| Compound | pest or weed control at 140 g/ha [%] |
| --- | --- |
| O=C(O)c1nc(-c2ccc(Cl)c(F)c2F)ccc1Cl [F70, 3-Chloro-6-(4-chloro-2,3-difluorophenyl) picolinic acid] | 0 to 29 |
| C#CCOC(=O)c1nc(-c2ccc(C(F)(F)F)cc2Cl)ccc1Cl [F45, prop-2-yn-1-yl 3-chloro-6-(2-chloro-4-(trifluoromethyl)phenyl)picolinate] | 30 to 44 |

Same assay, conditions: post-emergence, 336 h, AMARE: redroot pigweed (Amaranthus retroflexus), 140 g ai/ha, 14 days after application, read-out: Visual Growth Reduction (%) 14 Days After Application, AMARE

| Compound | pest or weed control at 140 g/ha [%] |
| --- | --- |
| O=C(O)c1nc(-c2ccc(Cl)c(F)c2F)ccc1Cl [F70, 3-Chloro-6-(4-chloro-2,3-difluorophenyl) picolinic acid] | 95 to 100 |
| C#CCOC(=O)c1nc(-c2ccc(C(F)(F)F)cc2Cl)ccc1Cl [F45, prop-2-yn-1-yl 3-chloro-6-(2-chloro-4-(trifluoromethyl)phenyl)picolinate] | 95 to 100 |

Same assay, conditions: post-emergence, 336 h, AVEFA: wild oat (Avena fatua), 140 g ai/ha, 14 days after application, read-out: Visual Growth Reduction (%) 14 Days After Application, AVEFA

| Compound | pest or weed control at 140 g/ha [%] |
| --- | --- |
| O=C(O)c1nc(-c2ccc(Cl)c(F)c2F)ccc1Cl [F70, 3-Chloro-6-(4-chloro-2,3-difluorophenyl) picolinic acid] | 0 to 29 |
| C#CCOC(=O)c1nc(-c2ccc(C(F)(F)F)cc2Cl)ccc1Cl [F45, prop-2-yn-1-yl 3-chloro-6-(2-chloro-4-(trifluoromethyl)phenyl)picolinate] | 45 to 59 |

Same assay, conditions: post-emergence, 336 h, CHEAL: lambsquarters (Chenopodium album), 140 g ai/ha, 14 days after application, read-out: Visual Growth Reduction (%) 14 Days After Application, CHEAL

| Compound | pest or weed control at 140 g/ha [%] |
| --- | --- |
| O=C(O)c1nc(-c2ccc(Cl)c(F)c2F)ccc1Cl [F70, 3-Chloro-6-(4-chloro-2,3-difluorophenyl) picolinic acid] | 95 to 100 |
| C#CCOC(=O)c1nc(-c2ccc(C(F)(F)F)cc2Cl)ccc1Cl [F45, prop-2-yn-1-yl 3-chloro-6-(2-chloro-4-(trifluoromethyl)phenyl)picolinate] | 95 to 100 |

Same assay, conditions: post-emergence, 336 h, CIRAR: canada thistle (Cirsium arvense), 140 g ai/ha, 14 days after application, read-out: Visual Growth Reduction (%) 14 Days After Application, CIRAR

| Compound | pest or weed control at 140 g/ha [%] |
| --- | --- |
| O=C(O)c1nc(-c2ccc(Cl)c(F)c2F)ccc1Cl [F70, 3-Chloro-6-(4-chloro-2,3-difluorophenyl) picolinic acid] | 75 to 84 |
| C#CCOC(=O)c1nc(-c2ccc(C(F)(F)F)cc2Cl)ccc1Cl [F45, prop-2-yn-1-yl 3-chloro-6-(2-chloro-4-(trifluoromethyl)phenyl)picolinate] | 95 to 100 |

Same assay, conditions: post-emergence, 336 h, CYPES: yellow nutsedge (Cyperus esculentus), 140 g ai/ha, 14 days after application, read-out: Visual Growth Reduction (%) 14 Days After Application, CYPES

| Compound | pest or weed control at 140 g/ha [%] |
| --- | --- |
| O=C(O)c1nc(-c2ccc(Cl)c(F)c2F)ccc1Cl [F70, 3-Chloro-6-(4-chloro-2,3-difluorophenyl) picolinic acid] | 75 to 84 |
| C#CCOC(=O)c1nc(-c2ccc(C(F)(F)F)cc2Cl)ccc1Cl [F45, prop-2-yn-1-yl 3-chloro-6-(2-chloro-4-(trifluoromethyl)phenyl)picolinate] | 0 to 29 |

Same assay, conditions: post-emergence, 336 h, DIGSA: crabgrass (Digitaria sanguinalis), 140 g ai/ha, 14 days after application, read-out: Visual Growth Reduction (%) 14 Days After Application, DIGSA

| Compound | pest or weed control at 140 g/ha [%] |
| --- | --- |
| O=C(O)c1nc(-c2ccc(Cl)c(F)c2F)ccc1Cl [F70, 3-Chloro-6-(4-chloro-2,3-difluorophenyl) picolinic acid] | 60 to 74 |
| C#CCOC(=O)c1nc(-c2ccc(C(F)(F)F)cc2Cl)ccc1Cl [F45, prop-2-yn-1-yl 3-chloro-6-(2-chloro-4-(trifluoromethyl)phenyl)picolinate] | 95 to 100 |

Same assay, conditions: post-emergence, 336 h, ECHCG: barnyardgrass (Echinochloa crus-galli), 140 g ai/ha, 14 days after application, read-out: Visual Growth Reduction (%) 14 Days After Application, ECHCG

| Compound | pest or weed control at 140 g/ha [%] |
| --- | --- |
| O=C(O)c1nc(-c2ccc(Cl)c(F)c2F)ccc1Cl [F70, 3-Chloro-6-(4-chloro-2,3-difluorophenyl) picolinic acid] | 45 to 59 |
| C#CCOC(=O)c1nc(-c2ccc(C(F)(F)F)cc2Cl)ccc1Cl [F45, prop-2-yn-1-yl 3-chloro-6-(2-chloro-4-(trifluoromethyl)phenyl)picolinate] | 30 to 44 |

Same assay, conditions: post-emergence, 336 h, IPOHE: ivy-leaf morning glory (Ipomoea hederacea), 140 g ai/ha, 14 days after application, read-out: Visual Growth Reduction (%) 14 Days After Application, IPOHE

| Compound | pest or weed control at 140 g/ha [%] |
| --- | --- |
| O=C(O)c1nc(-c2ccc(Cl)c(F)c2F)ccc1Cl [F70, 3-Chloro-6-(4-chloro-2,3-difluorophenyl) picolinic acid] | 85 to 94 |

Same assay, conditions: post-emergence, 336 h, KCHSC: kochia (Bassia scoparia), 140 g ai/ha, 14 days after application, read-out: Visual Growth Reduction (%) 14 Days After Application, KCHSC

| Compound | pest or weed control at 140 g/ha [%] |
| --- | --- |
| C#CCOC(=O)c1nc(-c2ccc(C(F)(F)F)cc2Cl)ccc1Cl [F45, prop-2-yn-1-yl 3-chloro-6-(2-chloro-4-(trifluoromethyl)phenyl)picolinate] | 85 to 94 |

Same assay, conditions: post-emergence, 336 h, ORYSA: rice (Oryza sativa), 140 g ai/ha, 14 days after application, read-out: Visual Growth Reduction (%) 14 Days After Application, ORYSA

| Compound | pest or weed control at 140 g/ha [%] |
| --- | --- |
| O=C(O)c1nc(-c2ccc(Cl)c(F)c2F)ccc1Cl [F70, 3-Chloro-6-(4-chloro-2,3-difluorophenyl) picolinic acid] | 0 to 29 |
| C#CCOC(=O)c1nc(-c2ccc(C(F)(F)F)cc2Cl)ccc1Cl [F45, prop-2-yn-1-yl 3-chloro-6-(2-chloro-4-(trifluoromethyl)phenyl)picolinate] | 60 to 74 |

Same assay, conditions: post-emergence, 336 h, SETFA: giant foxtail (Setaria faberi), 140 g ai/ha, 14 days after application, read-out: Visual Growth Reduction (%) 14 Days After Application, SETFA

| Compound | pest or weed control at 140 g/ha [%] |
| --- | --- |
| O=C(O)c1nc(-c2ccc(Cl)c(F)c2F)ccc1Cl [F70, 3-Chloro-6-(4-chloro-2,3-difluorophenyl) picolinic acid] | 30 to 44 |
| C#CCOC(=O)c1nc(-c2ccc(C(F)(F)F)cc2Cl)ccc1Cl [F45, prop-2-yn-1-yl 3-chloro-6-(2-chloro-4-(trifluoromethyl)phenyl)picolinate] | 85 to 94 |

Same assay, conditions: post-emergence, 336 h, SORVU: grain sorghum (Sorghum vulgare), 140 g ai/ha, 14 days after application, read-out: Visual Growth Reduction (%) 14 Days After Application, SORVU

| Compound | pest or weed control at 140 g/ha [%] |
| --- | --- |
| O=C(O)c1nc(-c2ccc(Cl)c(F)c2F)ccc1Cl [F70, 3-Chloro-6-(4-chloro-2,3-difluorophenyl) picolinic acid] | 85 to 94 |
| C#CCOC(=O)c1nc(-c2ccc(C(F)(F)F)cc2Cl)ccc1Cl [F45, prop-2-yn-1-yl 3-chloro-6-(2-chloro-4-(trifluoromethyl)phenyl)picolinate] | 85 to 94 |

Same assay, conditions: post-emergence, 336 h, STEME: common chickweed (Stellaria media), 140 g ai/ha, 14 days after application, read-out: Visual Growth Reduction (%) 14 Days After Application, STEME

| Compound | pest or weed control at 140 g/ha [%] |
| --- | --- |
| O=C(O)c1nc(-c2ccc(Cl)c(F)c2F)ccc1Cl [F70, 3-Chloro-6-(4-chloro-2,3-difluorophenyl) picolinic acid] | 60 to 74 |
| C#CCOC(=O)c1nc(-c2ccc(C(F)(F)F)cc2Cl)ccc1Cl [F45, prop-2-yn-1-yl 3-chloro-6-(2-chloro-4-(trifluoromethyl)phenyl)picolinate] | 75 to 84 |

Same assay, conditions: post-emergence, 336 h, TRZAS: wheat, spring (Triticum aestivum), 140 g ai/ha, 14 days after application, read-out: Visual Growth Reduction (%) 14 Days After Application, TRZAS

| Compound | pest or weed control at 140 g/ha [%] |
| --- | --- |
| C#CCOC(=O)c1nc(-c2ccc(C(F)(F)F)cc2Cl)ccc1Cl [F45, prop-2-yn-1-yl 3-chloro-6-(2-chloro-4-(trifluoromethyl)phenyl)picolinate] | 85 to 94 |
